Assay results as given in patent publication EP1203770A1 (priority 1992, dated 1994).

Molecular target: T1, HIV-1 protease (Human immunodeficiency virus type 1 group M subtype B, UniProt P04585)
T1 construct: The protease (or proteinase), consisting of only 99 amino acids, is among the smallest enzymes known
Assay: In vitro HIV protease inhibitory assay (HIV Protease FITC Assay)
Type: biochemical
Conditions: for inhibition at 0.41 µM: HIV-1 Dose 0.410 uM; for inhibition at 1.23 µM: HIV-1 Dose 1.230 uM; for inhibition at 3.7 µM: HIV-1 Dose 3.700 uM; for inhibition at 11 µM: HIV-1 Dose 11.000 uM; for inhibition at 33 µM: HIV-1 Dose 33.000 uM; for inhibition at 100 µM: HIV-1 Dose 100.000 uM; for Ki: read-out: HIV-1 FITC Ki
Method: The HIV protease screening assay is based on a fluorescently labeled substrate which can be resolved from nonlabeled cleavage product using avidin-polystyrene particles, 0.7-0.9 µm. The substrate is biotinylated at the amino terminal arginine and fluorescently labeled with fluorescein isothiocynate (FITC) at the carboxyl terminal lysine. […] Substrate (20 µl of 0.2 µM), sample (10 µl of desired concentraion), and enzyme (10 µl of 0.1 µM) are added to a 96 well pandex plate. The assay is run in 0.1 M sodium acetate buffer at pH 5.5 in the presence of 1.0 M sodium chloride and 0.05% NP-40 and incubated in the dark for one hour at room temperature. Avidin coated polystyrene beads {40 µl of 0.1% (w/v)} are added and the incubation is continued in the dark for an additional half hour. The labeled cleavage product is separated from the unreacted substrate via filtration and is read on the Idexx Screen Machine. The data are analyzed by appropriate computer algorithms to ascertain percent inhibition values.

[1] = read-out: HIV-1 Protease % Inhib
[2] = HIV-1 Dose 0.123 uM, read-out: HIV-1 Protease % Inhib
[3] = HIV-1 Dose 0.370 uM, read-out: HIV-1 Protease % Inhib
[4] = HIV-1 Dose 1.100 uM, read-out: HIV-1 Protease % Inhib
[5] = HIV-1 Dose 3.300 uM, read-out: HIV-1 Protease % Inhib
[6] = HIV-1 Dose 10.000 uM, read-out: HIV-1 Protease % Inhib
[7] = HIV-1 Dose 30.000 uM, read-out: HIV-1 Protease % Inhib

`CCC(CCOCCOC)c1cc(O)c(C(c2ccccc2)C2CC2)c(=O)o1` (stereo not shown) [Example 106, 3-(Cyclopropyl-phenyl-methyl)-6-(1-ethyl-3-(2-methoxy-ethoxy)-propyl)-4-hydroxy-pyran-2-one] showed an inhibition at 0.41 µM [1] of 57.4%, an inhibition at 1.23 µM [1] of 82.1% and an inhibition at 3.7 µM [1] of 101%. The inhibition at 11 µM [1] was 111%, the inhibition at 33 µM [1] was 115% and the inhibition at 100 µM [1] was 119%. It also gave a Ki of 58 nM.
For `CCC(Cc1ccccc1)c1cc(O)c(C(c2cccc(NS(=O)(=O)c3ccccc3)c2)C2CC2)c(=O)o1` (stereo not drawn) [Example 178, 3-(α-Cyclopropyl-meta-(phenylsulfonylamino)benzyl)-6-(α-ethylphenethyl)-4-hydroxy-2H-pyran-2-one], the inhibition at 0.123 µM [2] was 21.6%, the inhibition at 0.37 µM [3] was 61.9% and the inhibition at 1.1 µM [4] was 83.1%. The inhibition at 3.3 µM [5] was 95.5%, the inhibition at 10 µM [6] was 104% and the inhibition at 30 µM [7] was 107%. It also gave a Ki of 17.4 nM.
With `CCC(CCCCl)c1cc(O)c(C(c2ccccc2)C2CC2)c(=O)o1` (stereo not shown) [Example 64, 6-(4-Chloro-1-ethyl-butyl)-3-(cyclopropyl-phenyl-methyl)-4-hydroxy-pyran-2-one] the inhibition at 0.123 µM [2] was 13.7%, the inhibition at 0.37 µM [3] was 53.9% and the inhibition at 1.1 µM [4] was 87.7%. For the same compound, the inhibition at 3.3 µM [5] was 103%, the inhibition at 10 µM [6] was 109% and the inhibition at 30 µM [7] was 119%. It also gave a Ki of 44 nM.
With `O=c1oc(CCc2ccc(Cl)cc2)cc(O)c1C(c1ccccc1)C1CC1` (stereo not drawn) [Example 166, 3-(α-cyclopropylbenzyl)-4-hydroxy-6-(p-chlorophenethyl)-2H-pyran-2-one] the inhibition at 0.123 µM [2] was < 10%, the inhibition at 0.37 µM [3] was < 10% and the inhibition at 1.1 µM [4] was < 10%. For the same compound, the inhibition at 3.3 µM [5] was 39.8%, the inhibition at 10 µM [6] was 62.3% and the inhibition at 30 µM [7] was 80.9%. For the same compound, the inhibition at 100 µM [1] was 97.8%.
`CCCC1(CCCc2ccccc2)CC(O)=C(C(c2ccc(COCOC)s2)C2CC2)C(=O)O1` (stereo not drawn) [Example 241, 2H-Pyran-2-one, 3-(α-cyclopropyl-[5-(methoxymethoxy-methyl)-thiophen-2-yl]-methyl)-5,6-dihydro-4-hydroxy-6-(3-phenylpropyl)-6-propyl-] was tested, and the inhibition at 0.123 µM [2] was < 10%, the inhibition at 0.37 µM [3] was < 10% and the inhibition at 1.1 µM [4] was 32.8%. The inhibition at 3.3 µM [5] was 62.9%, the inhibition at 10 µM [6] was 87.1% and the inhibition at 30 µM [7] was 90.3%.
With `CCS(=O)(=O)Nc1cccc(C(c2c(O)cc(C(CC3CC3)CC3CCCOC3)oc2=O)C2CC2)c1` (stereo not shown) [Example 244] the inhibition at 0.123 µM [2] was 20.7%, the inhibition at 0.37 µM [3] was 57.9% and the inhibition at 1.1 µM [4] was 81.9%. For the same compound, the inhibition at 3.3 µM [5] was 90.6%, the inhibition at 10 µM [6] was 103% and the inhibition at 30 µM [7] was 99.4%. It also gave a Ki of 15.4 nM.
In the case of `CC(C)CC1(CCc2ccccc2)CC(O)=C(C(CCc2ccccc2)c2ccccc2)C(=O)O1` (stereo not shown) [Example 211], the “HIV-1 Protease % Inhib” value (HIV-1 Dose 0.123 uM) is reported as <10%, the “HIV-1 Protease % Inhib” value (HIV-1 Dose 0.370 uM) is reported as 21.39% and the “HIV-1 Protease % Inhib” value (HIV-1 Dose 1.100 uM) is reported as 47.29%. The “HIV-1 Protease % Inhib” value (HIV-1 Dose 3.300 uM) was 66.35%, the “HIV-1 Protease % Inhib” value (HIV-1 Dose 10.000 uM) was 89.15% and the “HIV-1 Protease % Inhib” value (HIV-1 Dose 30.000 uM) was 92.11%. The Ki was 64 nM.
With `CCC(CC)c1cc(O)c(C(c2ccccc2)C2CC2)c(=O)o1` (stereo not drawn) [Example 22, 3-(α-cyclopropylbenzyl)-6-(1-ethylpropyl)-4-hydroxy-2H-Pyran-2-one] the IC50 was 1800 nM, the inhibition at 1 µM (HIV-1 Dose 1.000 uM, read-out: HIV-1 Protease % Inhib) was 33.8% and the inhibition at 10 µM [6] was 98.3%. It also gave an inhibition at 100 µM [1] of 108%.
With `CCC(Cc1cccs1)c1cc(O)c(C(c2ccccc2)C2CC2)c(=O)o1` (stereo not shown) [Example 57, 3-(Cyclopropyi-phenyl-methyl)-4-hydroxy-6-(1-thiophen-2-ylmethyl-propyl)-pyran-2-one] the inhibition at 0.41 µM [1] was 76.7%, the inhibition at 1.23 µM [1] was 89.4% and the inhibition at 3.7 µM [1] was 103%. For the same compound, the inhibition at 11 µM [1] was 108%, the inhibition at 33 µM [1] was 114% and the inhibition at 100 µM [1] was 116%. For the same compound, the Ki was 63 nM.
`O=c1oc(CC(O)c2ccc(Cl)cc2)cc(O)c1C(c1ccccc1)C1CC1` (stereo not drawn) [Example 149, 3-(α-cyclopropylbenzyl)-4-hydroxy-6-(β-hydroxy-p-chlorophenethyl)-2H-pyran-2-one] was tested, and the inhibition at 0.123 µM [2] was < 10%, the inhibition at 0.37 µM [3] was 19.7% and the inhibition at 1.1 µM [4] was 46.9%. The inhibition at 3.3 µM [5] was 73.5%, the inhibition at 10 µM [6] was 98.5% and the inhibition at 30 µM [7] was 103%. For the same compound, the inhibition at 100 µM [1] was 117% and the Ki was 267 nM.
